Reference: ChEMBL document CHEMBL4334527, “Proline-Based Allosteric Inhibitors of Zika and Dengue Virus NS2B/NS3 Proteases” (J Med Chem, 2019)
Calls of active or inactive are those of the source. The calls are words filed in the database; no cut-off is given here.

Tests used:
dengue virus type 2 [1] = test: Inhibition of N-terminal hexa-histidine tagged Dengue virus 2 NS2B/NS3 protease I30A/L31A mutant expressed in Escherichia coli BL21-Gold (DE3) at 20 uM using fluorogenic AMC-substituted peptide boc-GRR-7-amino-4-methylcoumarin measured every 30 secs for 10 mins by fluorometric assay relative to control
Nonstructural protein 3 [2] = molecular target: T1, Nonstructural protein 3 (Zika virus, UniProt A0A024AXB9); test: Inhibition of N-terminal hexa-histidine tagged Zika virus NS2B/NS3 protease expressed in Escherichia coli BL21-Gold (DE3) using fluorogenic AMC-substituted peptide boc-GRR-7-amino-4-methylcoumarin measured every 30 secs for 10 mins by fluorometric assay
T1 sequence (A0A024AXB9 whole entry): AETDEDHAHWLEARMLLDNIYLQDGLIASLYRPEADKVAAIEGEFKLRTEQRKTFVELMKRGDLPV

[3] = Drug level in rat liver microsomes treated with (S)-N-(5,6-Dimethoxybenzo[d]thiazol-2-yl)-1-tosylpyrrolidine-2-carboxamide assessed as compound formation in presence of NADPH generating system by LC-MS/MS analysis; assay type: ADME, Microsome
[4] = Drug level in rat liver microsomes treated with (R)-N-(5,6-Dimethoxybenzo[d]thiazol-2-yl)-1-tosylpyrrolidine-2-carboxamide assessed as compound formation in presence of NADPH generating system by LC-MS/MS analysis; assay type: ADME, Microsome
[5] = molecular target: Nonstructural protein 3 (Zika virus) (UniProt A0A024AXB9); test: Inhibition of N-terminal hexa-histidine tagged Zika virus NS2B/NS3 protease expressed in Escherichia coli BL21-Gold (DE3) at 20 uM using fluorogenic AMC-substituted peptide boc-GRR-7-amino-4-methylcoumarin measured every 30 secs for 10 mins by fluorometric assay relative to control
Chain of Nonstructural protein 3 (Zika virus) (A0A024AXB9 as listed by the source): as the sequence (A0A024AXB9 whole entry) above

Zika virus [6] = test: Antiviral activity against Zika virus French Polynesia infected in African green monkey Vero cells assessed as reduction in plaque forming units at 5 uM measured after 96 hrs by crystal violet staining based assay; assay type: functional, organism-based
Zika virus [7] = test: Antiviral activity against Zika virus French Polynesia infected in human A549 cells assessed as reduction in viral RNA at 5 uM measured after 24 to 72 hrs post infection by RT-qPCR analysis; assay type: functional, organism-based
A549 = test: Cytotoxicity against human A549 cells assessed as reduction in cell viability up to 5 uM by Presto blue cell viability reagent based assay
Zika virus [8] = test: Antiviral activity against Zika virus Uganda infected in African green monkey Vero cells assessed as reduction in plaque forming units at 5 uM measured after 96 hrs by crystal violet staining based assay; assay type: functional, organism-based
Zika virus [9] = test: Antiviral activity against Zika virus Uganda infected in human A549 cells assessed as reduction in viral RNA at 5 uM measured after 24 to 72 hrs post infection by RT-qPCR analysis; assay type: functional, organism-based
Zika virus [10] = test: Antiviral activity against Zika virus infected in African green monkey Vero cells assessed as suppression of viral replication at 10 uM pre-incubated with cells for 1 hr before viral infection and measured after 4 days by RT-qPCR analysis; assay type: functional, organism-based
Zika virus [11] = test: Antiviral activity against Zika virus infected in human A549 cells assessed as induction of redistribution of the ZIKV Env protein from ER to cytoplasm at 0.5 uM by confocal scanning microscopy; assay type: functional, organism-based
[12] = Inhibition of N-terminal hexa-histidine tagged Dengue virus 2 NS2B/NS3 protease I30A/L31A mutant expressed in Escherichia coli BL21-Gold (DE3) using fluorogenic AMC-substituted peptide boc-GRR-7-amino-4-methylcoumarin measured every 30 secs for 10 mins by fluorometric assay; set-up: species or system dengue virus type 2
[13] = Drug metabolism in rat liver microsomes assessed as formation of (S)-N-(5,6-Dimethoxybenzo[d]thiazol-2-yl)-1-((4-(hydroxymethyl) phenyl) sulfonyl)pyrrolidine-2-carboxamide in presence of NADPH generating system by LC-MS/MS analysis; assay type: ADME, Microsome
dengue virus type 2 [14] = test: Antiviral activity against Dengue virus 2 infected in African green monkey Vero cells assessed as suppression of viral replication at 10 uM pre-incubated with cells for 1 hr before viral infection and measured after 4 days by RT-qPCR analysis; assay type: functional, organism-based
[15] = Drug metabolism in rat liver microsomes assessed as formation of (R)-N-(5,6-Dihydroxybenzo[d]thiazol-2-yl)-1-tosylpyrrolidine-2-carboxamide in presence of NADPH generating system by LC-MS/MS analysis; assay type: ADME, Microsome
[16] = Drug metabolism in rat liver microsomes assessed as formation of (R)-N-(5,6-Dimethoxybenzo[d]thiazol-2-yl)-1-((4-(hydroxymethyl) phenyl) sulfonyl)pyrrolidine-2-carboxamide in presence of NADPH generating system by LC-MS/MS analysis; assay type: ADME, Microsome
[17] = Drug metabolism in rat liver microsomes assessed as formation of (S)-1-Benzoyl-N-(5,6-dihydroxybenzo[d]thiazol-2-yl)pyrrolidine-2-carboxamide in presence of NADPH generating system by LC-MS/MS analysis; assay type: ADME, Microsome
Nonstructural protein 3 [18] = molecular target: T1, Nonstructural protein 3; test: Binding affinity to N-terminal hexa-histidine tagged Zika virus NS2B/NS3 protease expressed in Escherichia coli BL21-Gold (DE3) by microscale thermophoresis method

Molecule `O=C(Nc1nc2cc(O)c(O)cc2s1)[C@@H]1CCCN1S(=O)(=O)c1ccc(Cl)cc1` has an inhibition (dengue virus type 2 [1]) of 39% and an IC50 (Nonstructural protein 3 [2]) of 930 nM.
In the case of `COc1cc2nc(NC(=O)[C@H]3CCCN3S(=O)(=O)c3ccc(CO)cc3)sc2cc1OC`, the Drug uptake [3] is reported as “Active” and the Drug uptake [4] is reported as “Active”.
For `COc1ccc2cc(Oc3ccccc3C(=O)Nc3nc4cc(OC)c(OC)cc4s3)ccc2c1`, the inhibition [5] was “inactive”, the Activity (Zika virus [6]) was “Active” and the Activity (Zika virus [7]) was “Active”. The Activity (A549) was “Non-Toxic”, the Activity (Zika virus [8]) was “Active” and the Activity (Zika virus [9]) was “Active”. For the same molecule, the inhibition (dengue virus type 2 [1]) was “inactive”, the Activity (Zika virus [10]) was “inactive” and the Activity (Zika virus [11]) was “Active”.
For `O=C(Nc1nc2cc(O)c(O)cc2s1)[C@H]1CCCN1S(=O)(=O)c1ccc(F)cc1`, the inhibition (dengue virus type 2 [1]) was 17% and the IC50 (Nonstructural protein 3 [2]) was 1030 nM.
For `COc1cc2nc(NC(=O)C3CCCN3S(=O)(=O)c3ccc(C)cc3)sc2cc1OC` (centres undefined), the inhibition [5] was “inactive” and the inhibition (dengue virus type 2 [1]) was “inactive”.
`Cc1ccc(S(=O)(=O)N2CCC[C@@H]2C(=O)Nc2nc3ccc([N+](=O)[O-])cc3s2)cc1` gave an inhibition [5] of 31% and an inhibition (dengue virus type 2 [1]) of 18%.
Work on `Cc1ccc(S(=O)(=O)N2CCCC[C@H]2C(=O)Nc2nc3cc(O)c(O)cc3s2)cc1` yielded an IC50 [12] of 13 µM and an IC50 (Nonstructural protein 3 [2]) of 510 nM.
In the case of `O=C(Nc1nc2ccc([N+](=O)[O-])cc2s1)[C@@H]1CCCN1C(=O)c1ccccc1`, the inhibition [5] is reported as 44% and the inhibition (dengue virus type 2 [1]) is reported as 41%.
Molecule `O=C(Nc1nc2cc(O)c(O)cc2s1)[C@H]1CCCN1S(=O)(=O)c1ccccc1` has an inhibition (dengue virus type 2 [1]) of 21% and an IC50 (Nonstructural protein 3 [2]) of 1860 nM.
In the case of `COc1cc2nc(NC(=O)[C@@H]3CCCN3S(=O)(=O)c3ccc(C)cc3)sc2cc1OC`, the Drug metabolism [13] is reported as “Metabolite_Detected”, the Activity (Zika virus [7]) is reported as “inactive” and the Activity (dengue virus type 2 [14]) is reported as “Active”. For the same molecule, the Drug metabolism [15] was “Metabolite_Detected”, the Activity (A549) was “Non-Toxic” and the Activity (Zika virus [9]) was “inactive”. For the same molecule, the Activity (Zika virus [10]) was “inactive”, the Drug metabolism [16] was “Metabolite_Detected” and the Drug metabolism [17] was “Metabolite_Detected”.
In the case of `COc1ccc(S(=O)(=O)N2CCC[C@H]2C(=O)Nc2nc3cc(O)c(O)cc3s2)cc1`, the inhibition (dengue virus type 2 [1]) is reported as 36% and the IC50 (Nonstructural protein 3 [2]) is reported as 1320 nM.
For `Cc1ccc(S(=O)(=O)NCC(=O)Nc2nc3cc(O)c(O)cc3s2)cc1`, the IC50 [12] was 23 µM and the IC50 (Nonstructural protein 3 [2]) was 810 nM.
Work on `O=C(Nc1nc2cc(O)c(O)cc2s1)C1CCCCC1` yielded an inhibition [5] of 36% and an inhibition (dengue virus type 2 [1]) of 20%.
Work on `O=C(Nc1nc2ccc([N+](=O)[O-])cc2s1)[C@H]1CCCN1C(=O)c1ccccc1` yielded an IC50 [12] of 33.9 µM and an IC50 (Nonstructural protein 3 [2]) of 21900 nM.
For `Cc1ccc(S(=O)(=O)N2CCC[C@H]2C(=O)Nc2nc3cc(O)c(O)cc3s2)cc1`, the IC50 [12] was 25.2 µM, the Activity (Zika virus [7]) was “inactive” and the Drug uptake [3] was “Active”. The Kd (Nonstructural protein 3 [18]) was 240 nM, the Activity (A549) was “Non-Toxic” and the Activity (Zika virus [9]) was “inactive”. For the same molecule, the Activity (Zika virus [10]) was “inactive”, the Drug uptake [4] was “Active” and the IC50 (Nonstructural protein 3 [2]) was 2320 nM.
With `O=C(Nc1nc2cc(O)c(O)cc2s1)[C@H]1CCCN1C(=O)c1ccccc1` the inhibition (dengue virus type 2 [1]) was 33% and the IC50 (Nonstructural protein 3 [2]) was 940 nM.
With `CC(=O)Nc1ccc2cc(S(=O)(=O)N3CCC[C@@H]3C(=O)Nc3nc4cc(O)c(O)cc4s3)ccc2c1` the inhibition (dengue virus type 2 [1]) was 18% and the IC50 (Nonstructural protein 3 [2]) was 1350 nM.
In the case of `COc1ccc(S(=O)(=O)N2CCC[C@@H]2C(=O)Nc2nc3cc(O)c(O)cc3s2)cc1`, the inhibition (dengue virus type 2 [1]) is reported as 28% and the IC50 (Nonstructural protein 3 [2]) is reported as 860 nM.
`CC(=O)Nc1ccc2cc(S(=O)(=O)N3CCC[C@H]3C(=O)Nc3nc4cc(O)c(O)cc4s3)ccc2c1` gave an inhibition (dengue virus type 2 [1]) of 29% and an IC50 (Nonstructural protein 3 [2]) of 2950 nM.
